Reference: ChEMBL document CHEMBL1201862, “PubChem BioAssay data set” (2004)
Activity calls are given as the source filed them.

Experiments:
[1] = A549 cell cytotoxicity, dose response, cytotoxicity control, plate reader, cherry-pick, antagonist series (AID 743412); assay type: functional, cell-based
[2] = HepG2 cell cytotoxicity, dose response, cytotoxicity control, plate reader, cherry-pick, antagonist series (AID 743416); assay type: functional, cell-based
[3] = LGR2 antagonists, dose response, cell-based, HEK293, CRE-luciferase reporter, cherry pick, set 2 (AID 743343); assay type: functional;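 further: transfected cells were stimulated with diluted bursicon conditioned medium after compound addition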
[4] = MC4R antagonists, dose response, counter-screen for LGR2 antagonist project, cell-based, plate reader, cherry pick (AID 743444); assay type: functional;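 further: transfected HEK 293 cells stimulated with alpha-MSH peptide; potency of inhibitors of the alpha-MSH evoked signal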
[5] = target: Induced myeloid leukemia cell differentiation protein Mcl-1 (Homo sapiens, UniProt Q07820); assay type: functional
Sequence of Induced myeloid leukemia cell differentiation protein Mcl-1 (Q07820 whole entry): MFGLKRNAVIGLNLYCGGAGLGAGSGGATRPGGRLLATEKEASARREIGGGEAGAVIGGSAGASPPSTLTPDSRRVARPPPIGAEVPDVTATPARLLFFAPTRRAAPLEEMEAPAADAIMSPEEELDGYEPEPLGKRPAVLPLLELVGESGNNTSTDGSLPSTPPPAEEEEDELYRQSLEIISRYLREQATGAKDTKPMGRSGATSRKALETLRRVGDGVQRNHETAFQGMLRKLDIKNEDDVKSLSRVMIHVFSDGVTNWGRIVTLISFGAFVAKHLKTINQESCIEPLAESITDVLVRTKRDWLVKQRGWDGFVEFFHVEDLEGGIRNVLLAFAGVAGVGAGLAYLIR

[6] = inhibitors of intracellular T. cruzi replication, confirmation, NIH3T3 host cells, beta-gal luminescence (AID 2044); assay type: functional, cell-based;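 further: intracellular parasites grown in NIH/3T3 mouse fibroblasts as host cells; luminescent beta-galactosidase reporter signal from transgenic T. cruzi replicating inside host cells; inhibitors lower the luminescence signal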
[7] = cytotoxicity toward NIH3T3 fibroblasts, dose response, counter-screen, cell-based, ATP luminescence, mouse fibroblasts (AID 2010); assay type: functional;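 further: cells exposed to compound for about 90 hours before reading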
[8] = target: T1, Mannose-6-phosphate isomerase (Homo sapiens, UniProt P34949); experiment: human PMI inhibitors, high substrate, primary screen, biochemical, fluorescence intensity, high mannose 6-phosphate (AID 1220)
T1 sequence (P34949 whole entry): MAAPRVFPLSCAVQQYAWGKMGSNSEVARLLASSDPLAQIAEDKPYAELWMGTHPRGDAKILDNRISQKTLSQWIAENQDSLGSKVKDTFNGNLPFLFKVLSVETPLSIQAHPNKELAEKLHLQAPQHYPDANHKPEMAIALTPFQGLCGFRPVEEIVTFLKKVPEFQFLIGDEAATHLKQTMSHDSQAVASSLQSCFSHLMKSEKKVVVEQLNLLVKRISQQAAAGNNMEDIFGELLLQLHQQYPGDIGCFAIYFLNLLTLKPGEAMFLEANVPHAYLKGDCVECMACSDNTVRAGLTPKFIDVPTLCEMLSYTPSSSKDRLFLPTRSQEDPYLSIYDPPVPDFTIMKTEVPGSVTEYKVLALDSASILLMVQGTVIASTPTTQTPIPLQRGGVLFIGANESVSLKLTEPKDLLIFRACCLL

[9] = P. falciparum 3D7-ScDHODH growth inhibitors, dose response, SYBR Green, dry powder samples (AID 1159570); assay type: functional, cell-based;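 further: parasite growth measured after 72 hours of compound exposure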
[10] = P. falciparum Dd2 growth inhibitors, dose response, SYBR Green, cherry-picked samples (AID 1159567); assay type: functional, cell-based
[11] = P. falciparum Dd2 growth inhibitors, dose response, SYBR Green, dry powder samples (AID 1159566); assay type: functional, cell-based;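 further: potency for growth inhibition with lower SYBR green DNA signal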
[12] = P. falciparum ATP4 D1247Y mutant growth inhibitors, dose response, NITD609-resistant line, SYBR Green, dry powder (AID 1159571); assay type: functional, cell-based;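 further: parasites synchronized at ring stage by sorbitol before testing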
Prothrombin = Prothrombin (Homo sapiens, UniProt P00734); experiment: Thrombin 1536 HTS Dose Response Confirmation. [Related pubchem assays: 1046 (Thrombin 1536 HTS; hits were confirmed in this assay)]; assay type: functional
[13] = P. falciparum late gametocyte killing, dose response, luminescence (AID 1117278); assay type: functional, cell-based;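 further: gametocytes exposed to compound for 24 hours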
[14] = Jurkat T cell cytotoxicity, dose response, cytotoxicity control for P. falciparum gametocyte viability project, luminescence (AID 1117277); assay type: functional, cell-based;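 further: potency reflects loss of cellular ATP meaning fewer viable cells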
[15] = target: T2, Polyadenylate-binding protein 1 (Homo sapiens, UniProt P11940); experiment: PABP1 MLLE–PAM2 interaction inhibitors, dose response, miRNA deadenylation inhibitor project, biochemical, fluorescence polarization, Cy5-PAM2 peptide, secondary (AID 602260); assay type: functional; details: read-out: IC50_Mean
T2 sequence (P11940 whole entry): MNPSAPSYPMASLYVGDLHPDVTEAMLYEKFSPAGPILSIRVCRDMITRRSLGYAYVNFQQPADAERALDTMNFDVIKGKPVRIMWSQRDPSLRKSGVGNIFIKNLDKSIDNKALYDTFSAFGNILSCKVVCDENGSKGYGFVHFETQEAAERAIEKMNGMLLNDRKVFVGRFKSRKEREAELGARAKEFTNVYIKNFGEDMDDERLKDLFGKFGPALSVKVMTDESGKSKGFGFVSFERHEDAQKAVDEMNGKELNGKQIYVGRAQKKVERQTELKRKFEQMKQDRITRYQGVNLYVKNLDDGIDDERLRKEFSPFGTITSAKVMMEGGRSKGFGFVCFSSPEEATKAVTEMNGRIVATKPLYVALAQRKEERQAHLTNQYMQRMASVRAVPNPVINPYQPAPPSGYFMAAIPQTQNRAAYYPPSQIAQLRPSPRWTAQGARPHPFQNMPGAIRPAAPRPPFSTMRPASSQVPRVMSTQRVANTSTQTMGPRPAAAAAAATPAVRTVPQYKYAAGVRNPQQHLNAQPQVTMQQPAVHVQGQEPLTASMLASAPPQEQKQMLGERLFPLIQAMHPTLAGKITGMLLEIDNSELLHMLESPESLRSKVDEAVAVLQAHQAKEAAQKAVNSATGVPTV

[16] = target: T2, Polyadenylate-binding protein 1; experiment: PABP1 MLLE–PAM2 binding inhibitor potency, dose response, biochemical, fluorescence polarization, FITC-PAM2 peptide (AID 602259); assay type: functional; details: read-out: IC50_Mean
[17] = inhibitors of HIV Env-driven cell fusion, dose response, cherry-pick (AID 652057); assay type: functional, cell-based
[18] = inhibitors of clade B AD8 Env fusion, dose response, cell-based, cherry-pick (AID 652062); assay type: functional;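 further: luciferase signal from cell-cell fusion driven by HIV-1 clade B AD8 Env; potency is for inhibitors of fusion seen as a drop in luminescence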
Aminopeptidase N = target: T3, Aminopeptidase N (Plasmodium falciparum FcB1/Columbia, UniProt O96935); experiment: P. falciparum M1AAP inhibitors, biochemical, fluorogenic H-Leu-NHMec substrate, 1536-well (AID 1445); parameters: species or system Plasmodium falciparum 3D7, 3D7
T3 sequence (O96935 whole entry): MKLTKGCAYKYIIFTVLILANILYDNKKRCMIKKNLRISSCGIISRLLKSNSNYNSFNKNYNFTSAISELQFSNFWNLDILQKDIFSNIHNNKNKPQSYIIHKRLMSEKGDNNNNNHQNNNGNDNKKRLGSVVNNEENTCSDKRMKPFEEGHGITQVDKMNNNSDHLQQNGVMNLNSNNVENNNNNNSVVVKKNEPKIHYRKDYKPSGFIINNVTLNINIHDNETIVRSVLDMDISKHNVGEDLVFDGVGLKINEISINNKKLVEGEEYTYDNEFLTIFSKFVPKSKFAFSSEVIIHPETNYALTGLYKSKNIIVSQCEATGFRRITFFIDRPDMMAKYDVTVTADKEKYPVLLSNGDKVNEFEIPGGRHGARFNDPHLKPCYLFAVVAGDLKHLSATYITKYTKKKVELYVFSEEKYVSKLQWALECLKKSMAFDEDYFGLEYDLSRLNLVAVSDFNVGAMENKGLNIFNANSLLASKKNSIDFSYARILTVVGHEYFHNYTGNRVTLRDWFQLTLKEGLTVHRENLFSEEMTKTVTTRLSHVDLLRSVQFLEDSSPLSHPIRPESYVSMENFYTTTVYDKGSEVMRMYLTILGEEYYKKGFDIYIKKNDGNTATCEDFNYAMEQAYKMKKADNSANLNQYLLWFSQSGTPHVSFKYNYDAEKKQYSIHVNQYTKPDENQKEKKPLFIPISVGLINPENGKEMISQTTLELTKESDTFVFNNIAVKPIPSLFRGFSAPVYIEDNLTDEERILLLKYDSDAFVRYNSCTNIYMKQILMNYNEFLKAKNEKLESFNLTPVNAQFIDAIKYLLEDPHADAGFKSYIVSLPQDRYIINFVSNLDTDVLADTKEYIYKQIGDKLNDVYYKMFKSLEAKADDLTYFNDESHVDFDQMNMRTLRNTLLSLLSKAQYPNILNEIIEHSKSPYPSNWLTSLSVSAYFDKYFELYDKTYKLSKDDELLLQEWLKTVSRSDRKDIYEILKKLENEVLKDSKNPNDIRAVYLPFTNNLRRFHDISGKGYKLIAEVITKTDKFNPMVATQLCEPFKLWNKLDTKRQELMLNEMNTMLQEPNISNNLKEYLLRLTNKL

[19] = growth suppression of PTEN-null colon cells, dose response, cell-based, HCT116 PTEN knockout (AID 1047); assay type: functional;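 further: HCT116 colon tumor cells with PTEN knocked out; cells exposed to compound for 60 hours before readout; potency for loss of cell viability measured by luminescence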
[20] = growth suppression of beta-catenin-knockout colon cells, dose response, cell-based, HCT116, human colon tumor (AID 1045); assay type: functional;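 further: HCT116 colon tumor cells with beta catenin knocked out; cells exposed to compound for 60 hours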

SMILES: O=C(CCc1nnc(CCCCc2ccccc2)o1)N1CCCC(O)C1 (stereo not given)
- AC50 [1]: 0.513 µM (active)
- AC50 [2]: > 52 µM (inactive)
- AC50 [3]: 3.63 µM (active)
- AC50 [4]: 3.46 µM (active)

SMILES: O=C1C2C3C=CC(C2C(=O)N1c1cccc(O)c1)C1C2C(=O)N(c4cccc(O)c4)C(=O)C2C31 (stereo not given)
- IC50 [5]: 9.49 µM (not active)

SMILES: Oc1ccc(CNc2ccc(F)cc2)c2cccnc12
- EC50 [6]: 5.56 µM (active)
- EC50 [7]: > 60 µM (not active)
- IC50 [8]: 31 µM (active)

SMILES: COc1ccc2c3c([nH]c2c1)[C@H](CO)NCC31CCN(C(=O)Nc2ccc3c(c2)OCO3)CC1
- AC50 [9]: 1.41 µM (active)
- AC50 [10]: 0.914 µM (active)
- AC50 [11]: 0.49 µM (active)
- AC50 [12]: 0.949 µM (active)

SMILES: CC(C)c1ccc(-c2c(C#N)c(N)nc(SCC(=O)N3CCCCCC3)c2C#N)cc1
- IC50 (Prothrombin): > 50 µM (not active)

SMILES: CCN(Cc1ccncc1)Cc1c(O)ccc2ccccc12
- IC50 [8]: > 50 µM (not active)

SMILES: CCOc1cc(S(=O)(=O)N2CCCCC2)ccc1Cl
- IC50 (Prothrombin): > 50 µM (not active)

SMILES: CCC(Oc1ccccc1)C(=O)NCc1ccc(S(N)(=O)=O)cc1 (stereo not given)
- IC50 [13]: > 109 µM (inactive)
- IC50 [14]: > 83.3 µM (inactive)

SMILES: Cc1c(O)ccc(/C=N/Nc2nc(-c3cccnc3)nc3ccccc23)c1O
- IC50 [5]: 6.03 µM (active)

SMILES: COCC(C)n1c(C)cc(C(=O)COC(=O)c2ccc3c(c2)NC(=O)CS3)c1C (stereo not given)
- IC50 [15]: > 66 µM (inactive)
- IC50 [16]: > 66 µM (inactive)

SMILES: C/N=C(/c1ccco1)n1c(=S)nc(-c2ccco2)n(C)c1=S
- IC50 [8]: > 50 µM (not active)

SMILES: Cc1ccc(-c2ccc3c(c2)O[C@H](CN(C)Cc2ccncc2)[C@@H](C)CN([C@@H](C)CO)S3(=O)=O)cc1
- AC50 [17]: 12.8 µM (active)
- AC50 [18]: 26.5 µM (active)

SMILES: Cc1cccc(NC(=O)c2cc3n(n2)C(C(F)(F)F)CC(C2CC2)N3)c1C (stereo not given)
- IC50 [13]: > 109 µM (inactive)
- IC50 [14]: > 83.3 µM (inactive)

SMILES: O=C1OC(c2ccccc2)C2(CCCC2)C(=O)C12CCCC2 (stereo not given)
- IC50 [13]: > 109 µM (inactive)
- IC50 [14]: > 83.3 µM (inactive)

SMILES: CCOP(=O)(OCC)c1nc(-c2cccc([N+](=O)[O-])c2)oc1N1CCCCC1
- IC50 (Aminopeptidase N): 50.1 µM (active)

SMILES: N#C[C@@H]1[C@H](c2ccc(C#Cc3cccc(F)c3)cc2)[C@@H](CO)N1C(=O)C1CC1
- AC50 [1]: 24.4 µM (active)
- AC50 [2]: 36.7 µM (active)
- AC50 [3]: 61.3 µM (active)

SMILES: c1cncc(-c2nnc(-c3cccnc3)nn2)c1
- EC50 [19]: 9.23 µM (active)
- EC50 [20]: 9.6 µM (active)
- IC50 [15]: > 66 µM (inactive)
- IC50 [16]: > 66 µM (inactive)
